From patent US20060040871A1, “Bacterial transforming agent” (priority 2003, published 2006)

Test system: MRSA
Assay: MIC of methicillin for MRSA isolates grown with glycine or GBE (Table 1)
Type: cell-based, Staphylococcus aureus

NCC(=O)O [Glycine, glycine]
strains tested achieving the target MIC (0.2 M glycine, said of Table 1): 50% | MIC of methicillin (CD40 (EMRSA-1), glycine 0.02M (0.15%)): 32 mg/L | MIC of methicillin (CD40 (EMRSA-1), glycine 0.2M (1.5%)): 4 mg/L | MIC of methicillin (DS09 (EMRSA-1), glycine 0.02M (0.15%)): 32 mg/L | MIC of methicillin (DS09 (EMRSA-1), glycine 0.2M (1.5%)): 4 mg/L | MIC of methicillin (E15-97 (EMRSA-15), glycine 0.02M (0.15%)): 32 mg/L | MIC of methicillin (E15-97 (EMRSA-15), glycine 0.2M (1.5%)): 4 mg/L | MIC of methicillin (E16-96 (EMRSA-16), glycine 0.02M (0.15%)): 32 mg/L | MIC of methicillin (E16-96 (EMRSA-16), glycine 0.2M (1.5%)): 4 mg/L | MIC of methicillin (JF1-32 (EMRSA-1), glycine 0.02M (0.15%)): 32 mg/L | MIC of methicillin (JF1-32 (EMRSA-1), glycine 0.2M (1.5%)): 4 mg/L | MIC of methicillin (L265, glycine 0.02M (0.15%)): 64 mg/L | MIC of methicillin (L265, glycine 0.2M (1.5%)): 8 mg/L | MIC of methicillin (L266, glycine 0.02M (0.15%)): 64 mg/L | MIC of methicillin (L266, glycine 0.2M (1.5%)): 8 mg/L | MIC of methicillin (L267, glycine 0.02M (0.15%)): 32 mg/L | MIC of methicillin (L267, glycine 0.2M (1.5%)): 8 mg/L | MIC of methicillin (L268, glycine 0.02M (0.15%)): 32 mg/L | MIC of methicillin (L268, glycine 0.2M (1.5%)): 8 mg/L | MIC of methicillin (L269, glycine 0.02M (0.15%)): 16 mg/L | MIC of methicillin (L269, glycine 0.2M (1.5%)): 4 mg/L | MIC of methicillin (L270, glycine 0.02M (0.15%)): 8 mg/L | MIC of methicillin (L270, glycine 0.2M (1.5%)): 4 mg/L | MIC of methicillin (L271, glycine 0.02M (0.15%)): 8 mg/L | MIC of methicillin (L271, glycine 0.2M (1.5%)): 4 mg/L | MIC of methicillin (L272, glycine 0.02M (0.15%)): 16 mg/L | MIC of methicillin (L272, glycine 0.2M (1.5%)): 2 mg/L | MIC of methicillin (L273, glycine 0.02M (0.15%)): 8 mg/L | MIC of methicillin (L273, glycine 0.2M (1.5%)): 4 mg/L | MIC of methicillin (L274, glycine 0.02M (0.15%)): 16 mg/L | MIC of methicillin (L274, glycine 0.2M (1.5%)): 4 mg/L | MIC of methicillin (L275, glycine 0.02M (0.15%)): 32 mg/L | MIC of methicillin (L275, glycine 0.2M (1.5%)): 8 mg/L | MIC of methicillin (L276, glycine 0.02M (0.15%)): 16 mg/L | MIC of methicillin (L276, glycine 0.2M (1.5%)): 4 mg/L | MIC of methicillin (L277, glycine 0.02M (0.15%)): 8 mg/L | MIC of methicillin (L277, glycine 0.2M (1.5%)): 4 mg/L | MIC of methicillin (L278, glycine 0.02M (0.15%)): 64 mg/L | MIC of methicillin (L278, glycine 0.2M (1.5%)): 16 mg/L | MIC of methicillin (L279, glycine 0.02M (0.15%)): 64 mg/L | MIC of methicillin (L279, glycine 0.2M (1.5%)): 2 mg/L | MIC of methicillin (L280, glycine 0.02M (0.15%)): 16 mg/L | MIC of methicillin (L280, glycine 0.2M (1.5%)): 4 mg/L | MIC of methicillin (L281, glycine 0.02M (0.15%)): 32 mg/L | MIC of methicillin (L281, glycine 0.2M (1.5%)): 4 mg/L | MIC of methicillin (L282, glycine 0.02M (0.15%)): 32 mg/L | MIC of methicillin (L282, glycine 0.2M (1.5%)): 4 mg/L | MIC of methicillin (L283, glycine 0.02M (0.15%)): 32 mg/L | MIC of methicillin (L283, glycine 0.2M (1.5%)): 4 mg/L | MIC of methicillin (L284, glycine 0.02M (0.15%)): 32 mg/L | MIC of methicillin (L284, glycine 0.2M (1.5%)): 2 mg/L | MIC of methicillin (L285, glycine 0.02M (0.15%)): 32 mg/L | MIC of methicillin (L285, glycine 0.2M (1.5%)): 4 mg/L | MIC of methicillin (L286, glycine 0.02M (0.15%)): 32 mg/L | MIC of methicillin (L286, glycine 0.2M (1.5%)): 4 mg/L | MIC of methicillin (L287, glycine 0.02M (0.15%)): 32 mg/L | MIC of methicillin (L287, glycine 0.2M (1.5%)): 4 mg/L | MIC of methicillin (L288, glycine 0.02M (0.15%)): 32 mg/L | MIC of methicillin (L288, glycine 0.2M (1.5%)): 4 mg/L | MIC of methicillin (L289, glycine 0.02M (0.15%)): 32 mg/L | MIC of methicillin (L289, glycine 0.2M (1.5%)): 4 mg/L | MIC of methicillin (L290, glycine 0.02M (0.15%)): 32 mg/L | MIC of methicillin (L290, glycine 0.2M (1.5%)): 4 mg/L | MIC of methicillin (L291, glycine 0.02M (0.15%)): 32 mg/L | MIC of methicillin (L291, glycine 0.2M (1.5%)): 4 mg/L | MIC of methicillin (L292, glycine 0.02M (0.15%)): 32 mg/L | MIC of methicillin (L292, glycine 0.2M (1.5%)): 4 mg/L | MIC of methicillin (L293, glycine 0.02M (0.15%)): 32 mg/L | MIC of methicillin (L293, glycine 0.2M (1.5%)): 4 mg/L | MIC of methicillin (L294, glycine 0.02M (0.15%)): 32 mg/L | MIC of methicillin (L294, glycine 0.2M (1.5%)): 4 mg/L | MIC of methicillin (MC01 (EMRSA-1), glycine 0.02M (0.15%)): 32 mg/L | MIC of methicillin (MC01 (EMRSA-1), glycine 0.2M (1.5%)): 4 mg/L | MIC of methicillin (NCTC 12493, glycine 0.02M (0.15%)): 0.12 mg/L | MIC of methicillin (NCTC 12493, glycine 0.2M (1.5%)): 0.06 mg/L | MIC of methicillin (PS3-32 (EMRSA-1), glycine 0.02M (0.15%)): 32 mg/L | MIC of methicillin (PS3-32 (EMRSA-1), glycine 0.2M (1.5%)): 4 mg/L | MIC of methicillin (SN31 (EMRSA-1), glycine 0.02M (0.15%)): 32 mg/L | MIC of methicillin (SN31 (EMRSA-1), glycine 0.2M (1.5%)): 4 mg/L | MIC of methicillin (ST11 (EMRSA-1), glycine 0.02M (0.15%)): 32 mg/L | MIC of methicillin (ST11 (EMRSA-1), glycine 0.2M (1.5%)): 4 mg/L | MIC of methicillin (SW2-32 (EMRSA-1), glycine 0.02M (0.15%)): 32 mg/L | MIC of methicillin (SW2-32 (EMRSA-1), glycine 0.2M (1.5%)): 4 mg/L
